Test results reported in PMC3792958, “Olomoucine II, but Not Purvalanol A, Is Transported by Breast Cancer Resistance Protein (ABCG2) and P-Glycoprotein (ABCB1)” (PLoS ONE, 2013).

Experiments:
ABCG2 [1] = test system: ABCG2; design: method as in PMID 18841444; conditions: in vitro hematoporphyrin transport, Sf9 membrane vesicles; cited from earlier work
ABCG2 [2] = conditions: cited from earlier work; for inhibition of ABCG2: in vitro and in situ levels
ABCB1 [3] = assay: Cellular monolayer transport assay, MDCKII-ABCB1 cells; conditions: human
Description: (§1) ABCG2- and ABCB1-transduced MDCKII sublines (MDCKII-ABCG2 and MDCKII-ABCB1), which stably express ABCG2 and ABCB1 protein, respectively, were purchased from dr. Alfred Schinkeĺs lab (The Netherlands Cancer Institute, Amsterdam, The Netherlands). These transduced sublines as well as the parental MDCKII cell line (MDCKII-par) were routinely cultured in complete Dulbecco’s modified Eagle’s medium with 10% fetal bovine serum. 100 U/ml penicillin and 100 µg/ml streptomycin were used while growing the cells on the membrane inserts. All cells were routinely cultivated in antibiotic-free medium and periodically tested for mycoplasma contamination. […] Cells from passages 15 to 25 were used in all in vitro studies. Dimethyl sulfoxide was applied as a CDKi solvent in concentrations not exceeding 0.1%.
(§2) MDCKII-ABCG2, MDCKII-ABCB1 or MDCKII-par cells were seeded at a density of 1×10^6 per insert 72 h before experiment. The medium was replaced after 24 and 48 h of cultivation. One hour before the start of the experiment, the cells were washed with prewarmed 1×phospate buffered saline on both the apical and basal sides and Opti-MEM with or without fumitremorgin C or LY335979 was added into both compartments. At time 0, the experiment was started by replacing the medium with fresh Opti-MEM with or without CDKi and fumitremorgin C or LY335979 in the appropriate chamber. Samples were taken every 2 h from the opposite chambers for the duration of the experiment (6 h). Concentration of CDKi was determined via HPLC/MS analysis. Immediately after the experiment, cellular monolayer integrity was examined using fluorescein isothiocyanate labeled dextran (MW = 40 kDa). Dextran leakage was accepted up to 1% per hour.
(§3) HPLC/MS analysis using LC 20A Prominence chromatographic system (Shimadzu, Kyoto, Japan) coupled with LCQ Max advantage mass spectrometer (Thermo Finnigan, San Jose, CA, USA) was used for the quantification of olomoucine II and purvalanol A. The separation was performed on a Hypersil GOLD C18 column (100 × 4.6 mm, particle size 3 µm) protected with an OPTI-GUARD 1 mm guard column C18. The mobile phase flow rate was 0.35 ml/min and the column temperature was maintained at 40°C. The data were processed using Xcalibur 2.0 software (Thermo Finnigan, San Jose, CA, USA).
(§4) The detector was set as follows: spray voltage of 4.5 kV, capillary temperature of 320°C, sheet and auxiliary gas flows of 30 and 12 arbitrary units, respectively. […] The collision energies were 38% and 40% for olomoucine II and IS, respectively. […] The sample stability was evaluated within 94 h.
as §4, with “5.5” for “4.5”, “340°C,” for “320°C,”, “28” for “30”, “13” for “12”, “purvalanol A” for “olomoucine II”, “hours.” for “h.”
(§5) Transport of olomoucine II by ABCG2 and ABCB1 was tested in vitro using transport assays across the polarized monolayers of MDCKII-ABCG2 and MDCKII-ABCB1 cells, respectively. In this method, the transport across the monolayer is greatly accelerated in the basolateral to apical direction, when the compound is a substrate of examined transporter. Based on our previous studies, three olomoucine II concentrations (100 nM, 1 µM and 10 µM) were tested and transport ratios (r; olomoucine II transport in basolateral to apical direction divided by transport in apical to basolateral direction) 2 h after olomoucine II addition were calculated.

ABCB1 [4] = biological target: ABCB1 (Homo sapiens, UniProt P08183); assay: as above
Chain of ABCB1 (Homo sapiens, UniProt P08183) (P08183 whole entry): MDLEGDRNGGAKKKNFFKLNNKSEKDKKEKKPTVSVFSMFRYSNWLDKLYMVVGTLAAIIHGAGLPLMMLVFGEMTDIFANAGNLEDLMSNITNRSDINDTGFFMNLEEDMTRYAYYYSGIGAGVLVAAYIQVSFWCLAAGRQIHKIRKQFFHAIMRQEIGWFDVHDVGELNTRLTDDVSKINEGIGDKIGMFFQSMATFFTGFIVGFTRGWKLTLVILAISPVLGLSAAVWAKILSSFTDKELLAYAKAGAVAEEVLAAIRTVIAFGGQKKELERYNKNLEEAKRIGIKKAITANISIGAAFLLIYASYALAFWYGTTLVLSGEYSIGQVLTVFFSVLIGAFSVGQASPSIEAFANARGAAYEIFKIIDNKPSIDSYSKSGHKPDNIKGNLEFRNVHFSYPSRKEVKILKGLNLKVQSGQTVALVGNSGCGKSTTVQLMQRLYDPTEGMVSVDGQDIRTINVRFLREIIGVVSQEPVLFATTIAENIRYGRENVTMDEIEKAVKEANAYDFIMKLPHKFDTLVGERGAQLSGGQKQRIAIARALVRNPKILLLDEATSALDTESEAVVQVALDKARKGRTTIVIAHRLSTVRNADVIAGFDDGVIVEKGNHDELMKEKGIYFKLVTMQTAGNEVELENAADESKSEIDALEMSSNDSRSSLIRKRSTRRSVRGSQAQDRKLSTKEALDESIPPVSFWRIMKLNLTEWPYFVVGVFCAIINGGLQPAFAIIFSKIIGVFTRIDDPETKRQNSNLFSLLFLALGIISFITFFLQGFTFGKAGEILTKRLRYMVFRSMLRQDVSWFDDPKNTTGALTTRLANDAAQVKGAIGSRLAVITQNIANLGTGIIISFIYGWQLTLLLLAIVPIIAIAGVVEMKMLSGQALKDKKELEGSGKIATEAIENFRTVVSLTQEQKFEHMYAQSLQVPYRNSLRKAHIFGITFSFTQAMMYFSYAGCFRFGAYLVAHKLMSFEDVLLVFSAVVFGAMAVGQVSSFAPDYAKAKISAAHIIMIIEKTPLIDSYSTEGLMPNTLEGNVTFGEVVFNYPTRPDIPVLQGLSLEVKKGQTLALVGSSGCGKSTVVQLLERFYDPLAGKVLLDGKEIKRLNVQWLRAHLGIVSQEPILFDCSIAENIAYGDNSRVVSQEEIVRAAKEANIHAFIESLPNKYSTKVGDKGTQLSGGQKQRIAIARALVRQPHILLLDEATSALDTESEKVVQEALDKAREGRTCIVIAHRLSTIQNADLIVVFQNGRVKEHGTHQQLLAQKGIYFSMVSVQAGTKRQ
Description: as §1, §2, §3, §4
as §4, with “5.5” for “4.5”, “340°C,” for “320°C,”, “28” for “30”, “13” for “12”, “purvalanol A” for “olomoucine II”, “hours.” for “h.”
as §5

ABCG2 [5] = assay: Cellular monolayer transport assay, MDCKII-ABCG2 cells; conditions: human
Description: as §1, §2, §3, §4
as §4, with “5.5” for “4.5”, “340°C,” for “320°C,”, “28” for “30”, “13” for “12”, “purvalanol A” for “olomoucine II”, “hours.” for “h.”
as §5

ABCG2 [6] = biological target: T1, ABCG2 (Homo sapiens, UniProt Q9UNQ0); assay: as above
T1 sequence (Q9UNQ0 1-655): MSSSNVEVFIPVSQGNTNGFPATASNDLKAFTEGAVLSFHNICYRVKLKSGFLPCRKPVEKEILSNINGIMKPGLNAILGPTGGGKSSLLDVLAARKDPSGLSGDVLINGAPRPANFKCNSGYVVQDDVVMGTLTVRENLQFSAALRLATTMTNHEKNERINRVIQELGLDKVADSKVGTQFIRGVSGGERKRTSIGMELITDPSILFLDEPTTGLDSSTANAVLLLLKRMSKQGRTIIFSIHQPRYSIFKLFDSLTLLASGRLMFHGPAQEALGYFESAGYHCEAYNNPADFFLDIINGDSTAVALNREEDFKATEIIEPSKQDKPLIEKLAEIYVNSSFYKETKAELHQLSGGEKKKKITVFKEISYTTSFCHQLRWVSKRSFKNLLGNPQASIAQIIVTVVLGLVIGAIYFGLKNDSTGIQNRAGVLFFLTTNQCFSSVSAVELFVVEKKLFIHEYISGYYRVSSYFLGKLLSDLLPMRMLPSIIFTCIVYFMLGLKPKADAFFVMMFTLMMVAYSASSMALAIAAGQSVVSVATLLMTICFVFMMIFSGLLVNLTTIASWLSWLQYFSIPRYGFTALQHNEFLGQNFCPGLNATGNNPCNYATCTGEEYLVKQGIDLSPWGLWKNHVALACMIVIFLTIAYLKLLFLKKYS
Description: as §1, §2, §3, §4
as §4, with “5.5” for “4.5”, “340°C,” for “320°C,”, “28” for “30”, “13” for “12”, “purvalanol A” for “olomoucine II”, “hours.” for “h.”
as §5

MDCKII cells = assay: Generation of sulfated conjugate in MDCKII cells (HPLC/MS); assay type: in vitro ADME, canine; conditions: MDCKII-ABCG2, MDCKII-ABCB1 and MDCKII-par; MS analysis
Description: Concentration of CDKi was determined via HPLC/MS analysis. […] Dextran leakage was accepted up to 1% per hour.
In olomoucine II transport experiments, we recorded time-dependent generation of an unknown peak in the fifth minute of HPLC analysis in all three cell lines tested (MDCKII-ABCG2, MDCKII-ABCB1 and MDCKII-par). Based on the MS analysis, the compound was identified as a sulfated conjugate of olomoucine II (Fig. 2). […] On the other hand, the amount of sulfated metabolite increased with time and caused remarkable distortion of the results of parent compound. Therefore, when analyzing the data of unconjugated olomoucine II, the time interval was shortened to 2 hours in order to reduce the misrepresenting effect of sulfated olomoucine II. Considering ionic nature of sulfated olomoucine II, it is obvious that this compound cannot escape from the cells via passive diffusion but must utilize special transport system(s). Relative quantification of olomoucine II sulfate allowed us to describe its pharmacokinetic behavior in all MDCKII cell sublines.
Figure 2 Mass spectra of an unknown peak eluted in the fifth minute of HPLC analysis of olomoucine II transport. (A) spectrum in positive mode, (B) MS^2 in positive mode, (C) negative mode, (D) MS^2 in negative mode. […]

MDCKII-par cells = assay: Cellular monolayer transport assay, parental MDCKII-par cells; conditions: olomoucine II 100 nM and 1 µM, 2 h, 1 µM LY335979 (endogenous canine Abcb1 inhibitor)
Description: as §1, §2, §3, §4
as §4, with “5.5” for “4.5”, “340°C,” for “320°C,”, “28” for “30”, “13” for “12”, “purvalanol A” for “olomoucine II”, “hours.” for “h.”
as §5

[7] = as above; conditions: dog, MDCK
Description: as §1, §2, §3, §4
as §4, with “5.5” for “4.5”, “340°C,” for “320°C,”, “28” for “30”, “13” for “12”, “purvalanol A” for “olomoucine II”, “hours.” for “h.”
as §5

[8] = test system: ABCG2-expressing cell lines; conditions: combination method of Chou-Talalay; cited from earlier work
ABCG2 [9] = conditions: cited from earlier work
[10] = test system: multidrug resistance associated protein 1 (ABCC1); design: method as in PMID 20699410; conditions: cited from earlier work
[11] = test system: multidrug resistance associated protein 2 (ABCC2); design: method as in PMID 20699410; conditions: cited from earlier work
ABCB1 [12] = conditions: bovine brain microvessel endothelial cell monolayers; cited from earlier work

Compound: COc1cc2ncnc(Nc3cccc(O)c3)c2cc1OC [WHI-P180]
- ABCG2 inhibition (ABCG2 [1]): ABCG2 inhibition

Compound: CC[C@H](CO)Nc1nc(NCc2ccccc2O)c2ncn(C(C)C)c2n1 [olomoucine II]
- ABCG2 inhibitory potency compared with fumitremorgin C (ABCG2 [2]): comparable or even higher potency than fumitremorgin C
- inhibition of ABCG2 (ABCG2 [2]): inhibition of ABCG2
- efflux ratio at 2 h, 100 nM (ABCB1 [3]; MDCK-MDR1, with LY335979 1 µM): 1.48
- efflux ratio at 2 h, 1 µM (ABCB1 [3]; MDCK-MDR1, with LY335979 1 µM): 1.83
- asymmetry in transport in MDCKII-ABCB1 cells in comparison with ABCG2 transduced cells (ABCB1 [4]; 100 nM and 1 µM, 2 h): approximately 3 fold
- efflux ratio at 2 h, 100 nM (ABCB1 [4]; human, MDCK-MDR1): 6.45
- efflux ratio at 2 h, 1 µM (ABCB1 [4]; human, MDCK-MDR1): 6.83
- efflux ratio at 2 h, 10 µM (ABCB1 [4]; human, MDCK-MDR1): 2.51
- ABCB1 substrate status (ABCB1 [4]; in vitro, MDCKII-ABCB1 monolayers): substrate of ABCB1
- transport by placental ABCB1/ABCG2 in perfused rat placenta (placental ABCB1/ABCG2): actively pumped from fetus to mother
- efflux ratio at 2 h, 100 nM (ABCG2 [5]; with fumitremorgin C 5 µM): 1.32
- efflux ratio at 2 h, 1 µM (ABCG2 [5]; with fumitremorgin C 5 µM): 1.21
- efflux ratio at 2 h, 100 nM (ABCG2 [6]; human): 2.27
- efflux ratio at 2 h, 10 µM (ABCG2 [6]; human): 1.29
- ABCG2 substrate status (ABCG2 [6]; in vitro, MDCKII-ABCG2 monolayers): dual substrate of ABCG2 and ABCB1
- transport ratio r (basolateral to apical divided by apical to basolateral) (ABCG2 [6]; olomoucine II 1 µM, 2 h, without inhibitor): 2.31
- sulfatation in MDCKII cells (MDCKII cells): time-dependent generation of a metabolite
- change in r values after adding LY335979 (MDCKII-par cells): did not observe statistically significant changes
- efflux ratio at 2 h, 100 nM [7]: 1.45
- efflux ratio at 2 h, 1 µM [7]: 1.39
- efflux ratio at 2 h, 10 µM [7]: 1.64
- potentiation of the antiproliferative effect of mitoxantrone [8]: synergistically potentiate

Compound: CC(C)[C@H](CO)Nc1nc(Nc2cccc(Cl)c2)c2ncn(C(C)C)c2n1 [purvalanol A]
- ABCG2 inhibitory potency compared with fumitremorgin C (ABCG2 [2]): comparable or even higher potency than fumitremorgin C
- inhibition of ABCG2 (ABCG2 [2]): inhibition of ABCG2
- ABCG2 inhibition (ABCG2 [1]): ABCG2 inhibition
- efflux ratio at 6 h, 1 µM (ABCB1 [3]; MDCK-MDR1): 1.2
- efflux ratio at 6 h, 10 µM (ABCB1 [3]; MDCK-MDR1): 1.18
- ABCB1 substrate status (ABCB1 [4]; human, MDCK-MDR1): not an ABCB1 substrate
- efflux ratio at 6 h, 1 µM (ABCB1 [4]; human, MDCK-MDR1): 1.36
- efflux ratio at 6 h, 10 µM (ABCB1 [4]; human, MDCK-MDR1): 1.26
- transport by placental ABCB1/ABCG2 in perfused rat placenta (placental ABCB1/ABCG2): showed no interactions with these transporters
- efflux ratio at 6 h, 1 µM (ABCG2 [5]): 1.33
- efflux ratio at 6 h, 10 µM (ABCG2 [5]): 1.26
- ABCG2 substrate status (ABCG2 [6]; human): not an ABCG2 substrate
- efflux ratio at 6 h, 1 µM (ABCG2 [6]; human): 1.28
- efflux ratio at 6 h, 10 µM (ABCG2 [6]; human): 1.23
- sulfatation in MDCKII cells (MDCKII cells): not subjected to sulfatation
- efflux ratio at 6 h, 1 µM [7]: 1.14
- efflux ratio at 6 h, 10 µM [7]: 1.05
- potentiation of the antiproliferative effect of mitoxantrone [8]: synergistically potentiate

Compound: CC[C@H](CO)Nc1nc(NCc2ccccc2)c2ncn(C(C)C)c2n1 [roscovitine]
- transport by ABCG2 (ABCG2 [9]): not transported
- transport by ABCC1 [10]: not transported
- transport by ABCC2 [11]: not transported
- inhibition of ABCB1 (ABCB1 [12]): significant inhibition of ABCB1
